# Test results from patent publication US9662318B2, “Bitopic muscarinic agonists and antagonists and methods of synthesis and use thereof” (BARRY UNIVERSITY, INC., priority 2012, dated 2017).
# pIC50, pKi: −log10 of the molar value. Read-outs that look alike come from different tables or passages of the source.
# How the values were obtained:
# M5 muscarinic receptor [1] = biological target: T1, M5 muscarinic receptor (Homo sapiens, UniProt P08912); test: Dissociation of [3H]acetylcholine (full time course kinetics); type: binding; conditions: [3H]acetylcholine dissociation
# T1 construct: host or cells: CHO (Chinese hamster ovary) cells, stably transfected
# T1 sequence (P08912 1-532): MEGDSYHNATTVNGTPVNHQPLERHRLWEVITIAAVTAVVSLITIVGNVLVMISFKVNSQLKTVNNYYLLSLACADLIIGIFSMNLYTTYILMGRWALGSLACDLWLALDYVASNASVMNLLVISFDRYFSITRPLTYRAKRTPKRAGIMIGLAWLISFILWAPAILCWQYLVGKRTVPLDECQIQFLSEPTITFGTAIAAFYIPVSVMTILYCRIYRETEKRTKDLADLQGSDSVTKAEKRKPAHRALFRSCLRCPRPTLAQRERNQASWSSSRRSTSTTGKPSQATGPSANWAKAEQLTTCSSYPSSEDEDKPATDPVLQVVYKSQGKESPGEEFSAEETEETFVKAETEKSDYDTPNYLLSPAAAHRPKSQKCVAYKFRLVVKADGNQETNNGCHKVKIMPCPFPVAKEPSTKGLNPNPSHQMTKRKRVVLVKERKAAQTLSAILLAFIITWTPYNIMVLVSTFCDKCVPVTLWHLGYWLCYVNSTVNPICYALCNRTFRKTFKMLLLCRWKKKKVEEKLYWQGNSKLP
# From the text: (§1) To probe the ability of JB-D4 to allosterically modulate orthosteric ligand, its effect on the rate of orthosteric radioligand dissociation has been investigated. […] where y is the percentage of radioligand binding at time x of radioligand binding at time 0, koff1 and koff2 are rate dissociation constants and f2 is the percentage of sites with koff2 rate of dissociation. […] y is the percentage of radioligand binding at time x of radioligand binding at time 0, koff is rate dissociation constant and f is percentage of sites with koff rate of dissociation. Eq. 2 was fitted to the data from kinetic experiments. Data are means±SD from 3 independent experiments performed in quadruplicates.
# M4 muscarinic receptor [2] = biological target: T2, M4 muscarinic receptor (Homo sapiens, UniProt P08173); test: as above; type: binding; conditions: [3H]acetylcholine dissociation
# T2 construct: host or cells: Chinese hamster ovary cells
# T2 sequence (P08173 1-479): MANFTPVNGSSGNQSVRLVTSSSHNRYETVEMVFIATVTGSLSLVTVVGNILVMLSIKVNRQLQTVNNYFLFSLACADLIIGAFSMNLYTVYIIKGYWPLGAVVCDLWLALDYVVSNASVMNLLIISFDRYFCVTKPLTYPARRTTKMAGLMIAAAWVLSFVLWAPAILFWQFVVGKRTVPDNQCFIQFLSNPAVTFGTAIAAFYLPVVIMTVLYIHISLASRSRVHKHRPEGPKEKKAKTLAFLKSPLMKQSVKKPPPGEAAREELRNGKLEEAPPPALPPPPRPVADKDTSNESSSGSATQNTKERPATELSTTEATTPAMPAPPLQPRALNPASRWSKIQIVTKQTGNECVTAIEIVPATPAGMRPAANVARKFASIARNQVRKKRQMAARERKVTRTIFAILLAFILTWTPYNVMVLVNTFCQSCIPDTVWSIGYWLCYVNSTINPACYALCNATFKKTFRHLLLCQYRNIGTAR
# From the text: as §1
# M3 muscarinic receptor = biological target: T3, M3 muscarinic receptor (Homo sapiens, UniProt P20309); test: as above; type: binding; conditions: [3H]acetylcholine dissociation
# T3 construct: host or cells: Chinese hamster ovary cells
# T3 sequence (P20309 whole entry): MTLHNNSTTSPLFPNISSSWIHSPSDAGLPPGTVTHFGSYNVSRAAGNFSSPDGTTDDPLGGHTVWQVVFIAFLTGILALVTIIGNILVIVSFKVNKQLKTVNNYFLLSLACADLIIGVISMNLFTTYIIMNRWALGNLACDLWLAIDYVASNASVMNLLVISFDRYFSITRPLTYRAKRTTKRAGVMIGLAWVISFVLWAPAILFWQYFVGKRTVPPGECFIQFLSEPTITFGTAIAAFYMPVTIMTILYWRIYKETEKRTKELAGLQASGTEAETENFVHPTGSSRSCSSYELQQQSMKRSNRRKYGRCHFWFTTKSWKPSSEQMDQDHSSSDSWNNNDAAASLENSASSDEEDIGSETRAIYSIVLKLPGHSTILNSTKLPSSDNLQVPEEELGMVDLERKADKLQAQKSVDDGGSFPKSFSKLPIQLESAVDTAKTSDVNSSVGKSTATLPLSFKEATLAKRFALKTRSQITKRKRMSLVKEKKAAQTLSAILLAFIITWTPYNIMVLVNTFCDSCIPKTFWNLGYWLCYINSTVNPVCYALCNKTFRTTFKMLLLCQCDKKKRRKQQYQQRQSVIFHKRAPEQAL
# From the text: as §1
# M1 muscarinic receptor [3] = biological target: T4, M1 muscarinic receptor (Homo sapiens, UniProt P11229); test: as above; type: binding; conditions: [3H]acetylcholine dissociation
# T4 sequence (P11229 1-460): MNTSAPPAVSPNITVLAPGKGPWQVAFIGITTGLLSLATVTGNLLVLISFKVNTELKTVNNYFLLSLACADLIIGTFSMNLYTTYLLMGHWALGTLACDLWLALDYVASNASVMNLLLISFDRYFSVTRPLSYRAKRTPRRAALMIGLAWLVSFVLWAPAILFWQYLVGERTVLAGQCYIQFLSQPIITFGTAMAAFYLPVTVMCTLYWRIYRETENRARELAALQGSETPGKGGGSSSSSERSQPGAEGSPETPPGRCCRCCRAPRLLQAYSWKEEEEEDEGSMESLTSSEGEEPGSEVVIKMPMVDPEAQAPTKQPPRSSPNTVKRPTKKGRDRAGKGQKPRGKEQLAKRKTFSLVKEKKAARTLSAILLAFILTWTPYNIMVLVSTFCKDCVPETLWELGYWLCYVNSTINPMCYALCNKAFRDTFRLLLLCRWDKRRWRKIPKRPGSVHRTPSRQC
# From the text: as §1
# M4 muscarinic receptor [4] = biological target: T2, M4 muscarinic receptor; test: biochemical; type: binding; conditions: competition with [^3H]QNB
# M5 muscarinic receptor [5] = biological target: T1, M5 muscarinic receptor; test: Accumulation of inositol phosphates in CHO cells; type: cell-based; conditions: M5; ligand 0.1 mM; no carbachol
# Experimental: (§2) Chinese hamster ovary cells stably transfected with the genes of human variants of muscarinic receptors were purchased from Missouri S&T cDNA Resource Center (Rolla, Mo., USA). […] Cells were grown to confluency in 75 cm^2 flasks in Dulbecco's modified Eagle's medium supplemented with 10% fetal bovine serum and 2 million of cells were subcultured to 100 mm Petri dishes. Medium was supplemented with 5 mM butyrate for the last 24 hours of cultivation to increase receptor expression.
# (§3) Inositolphosphates formation was determined in cells pre-labeled overnight by 0.5 μM [^3H]myo-inositol in 0.3 mL of DMEM (3 μCi/ml) at 37° C. […] Incubation was stopped by removal of incubation buffer and addition 0.2 mL 20% trichloracetic acid (TCA). After 1 h incubation at 4° C., 100 μL, of TCA extracts were taken for measurement. Rest of the TCA was removed, and TCA precipitates were washed with 200 μL TCA and dissolved in 200 μL of 1 M NaOH. After 1 h incubation at 4° C., 100 μL, of NaOH lysates were taken for measurement. Radioactivity in TCA extracts and NaOH lysates were determined by liquid scintillation counting. The rate of inositolphosphates accumulation was calculated as a percentage of the soluble (released) inositolphosphates from the total incorporated radioactivity (sum of radioactivity in NaOH lysates and TCA extracts).
# (§4) EC50 values are expressed as negative logarithms and EMAX values as folds over basal, Table 7.
# [6] = tested on: M1-M5 muscarinic receptors; type: binding, human; conditions: competition experiments, all M1-M5
# M1 muscarinic receptor [7] = biological target: T4, M1 muscarinic receptor; test: biochemical; type: binding; conditions: competition with [^3H]QNB
# [8] = tested on: M1-M5 muscarinic receptors; test: Competition with [3H]NMS, statements over all subtypes; type: binding, human; conditions: competition experiments, all M1-M5
# M5 muscarinic receptor [9] = biological target: T1, M5 muscarinic receptor; test: biochemical; type: binding; conditions: competition with [^3H]QNB
# M4 muscarinic receptor [10] = biological target: T2, M4 muscarinic receptor; test: Accumulation of inositol phosphates in CHO cells; type: cell-based; conditions: M4; ligand 0.1 mM; no carbachol
# Experimental: as §2, §3, §4
structure (smiles),measurement,setting,value
"CCCCOc1ccc(C(=O)OCC[N+]2(C)CCCCC2)cc1.[I-] [JB-D4, 2-(N-piperidineethyl) p-butoxybenzoate N-methyl iodide]",f,"M5 muscarinic receptor [1]; +0.1 mM JB-D4, M5",81 ± 3%
same,koff,"M5 muscarinic receptor [1]; +0.1 mM JB-D4, M5, read-out: koff (converted)",0.000633 s⁻¹
same,f,"M5 muscarinic receptor [1]; +1 mM JB-D4, M5",81 ± 3%
same,koff,"M5 muscarinic receptor [1]; +1 mM JB-D4, M5",0.00055 ± 8.3e-05 s⁻¹
same,koff,"M5 muscarinic receptor [1]; +1 mM JB-D4, M5, read-out: koff (converted)",0.00055 s⁻¹
same,f,"M4 muscarinic receptor [2]; +0.1 mM JB-D4, M4",81 ± 4%
same,koff,"M4 muscarinic receptor [2]; +0.1 mM JB-D4, M4",0.003 s⁻¹
same,f,"M4 muscarinic receptor [2]; +1 mM JB-D4, M4",86 ± 3%
same,koff,"M4 muscarinic receptor [2]; +1 mM JB-D4, M4",0.000817 s⁻¹
same,f,"M3 muscarinic receptor; +0.1 mM JB-D4, M3",84 ± 3%
same,koff,"M3 muscarinic receptor; +0.1 mM JB-D4, M3, read-out: koff (converted)",0.00317 s⁻¹
same,f,"M3 muscarinic receptor; +1 mM JB-D4, M3",82 ± 3%
same,koff,"M3 muscarinic receptor; +1 mM JB-D4, M3",0.0014 ± 0.00012 s⁻¹
same,koff,"M3 muscarinic receptor; +1 mM JB-D4, M3, read-out: koff (converted)",0.0014 s⁻¹
same,f,"M1 muscarinic receptor [3]; +0.1 mM JB-D4, M1",90 ± 3%
same,koff,"M1 muscarinic receptor [3]; +0.1 mM JB-D4, M1",0.00317 s⁻¹
same,f,"M1 muscarinic receptor [3]; +1 mM JB-D4, M1",88 ± 3%
same,koff,"M1 muscarinic receptor [3]; +1 mM JB-D4, M1",0.00183 s⁻¹
same,pKi,M4 muscarinic receptor [4]; M4,5.51
same,pIC50,"M4 muscarinic receptor [4]; M4, average of 3, read-out: avg IC50",4.57
same,pIC50,"M4 muscarinic receptor [4]; M4, experiment 1, read-out: IC50—1",4.69
same,pIC50,"M4 muscarinic receptor [4]; M4, experiment 2, read-out: IC50—2",4.49
same,pIC50,"M4 muscarinic receptor [4]; M4, experiment 3, read-out: IC50—3",4.55
same,Effect of ligands on basal activity (accumulation of inositol phosphates as percent of accumulation in the absence of the ligand),M5 muscarinic receptor [5],98 ± 3%
same,inhibition of QNB binding,[6],fully inhibit
same,pKi,M1 muscarinic receptor [7]; M1,5.98
same,pIC50,"M1 muscarinic receptor [7]; M1, average of 3, read-out: avg IC50",5.06
same,pIC50,"M1 muscarinic receptor [7]; M1, experiment 1, read-out: IC50—1",5.06
same,pIC50,"M1 muscarinic receptor [7]; M1, experiment 2, read-out: IC50—2",5.03
same,pIC50,"M1 muscarinic receptor [7]; M1, experiment 3, read-out: IC50—3",5.09
same,inhibition of [^3H]NMS binding,[8],fully inhibit
same,pKi,M5 muscarinic receptor [9]; M5,6.08
same,pIC50,"M5 muscarinic receptor [9]; M5, average of 3, read-out: avg IC50",5.18
same,pIC50,"M5 muscarinic receptor [9]; M5, experiment 1, read-out: IC50—1",5.24
same,pIC50,"M5 muscarinic receptor [9]; M5, experiment 2, read-out: IC50—2",5.17
same,pIC50,"M5 muscarinic receptor [9]; M5, experiment 3, read-out: IC50—3",5.13
same,Effect of ligands on basal activity (accumulation of inositol phosphates as percent of accumulation in the absence of the ligand),M4 muscarinic receptor [10],98 ± 4%
